Laboratory results: ChEMBL document CHEMBL1201862, “PubChem BioAssay data set” (2004)
The source made the active and inactive calls.

Columns and labels:
[1] = Luminescence Cell-Based Dose Confirmation HTS to Identify Activators of 5'UTR Stem-Loop Driven Alpha-Synuclein mRNA Translation in H4 Neuroglioblastoma Cells. [Related pubchem assays: 1829 (Project Summary), 1814 (Primary HTS)]; format: functional
[2] = Luminescence Cell-Based Dose Response HTS to Identify Activators of Luciferase Translation or Activity in H4 […] Cells. [Related pubchem assays: 1829 (Project Summary), 1814 (Primary HTS)]; format: functional
cells [3] = format: functional, cell-based
H4 = test: Luminescence Cell-Based Dose Response HTS to Identify Activators of 5'UTR Stem-Loop Driven Prion Protein mRNA Translation in H4 Neuroglioblastoma Cells. [Related pubchem assays: 1829 (Project Summary), 1814 (Primary HTS)]; format: functional; details: Homo sapiens
cells [4] = format: functional, cell-based; remark: listed apart in the source
HEK293 [5] = test: cells; format: functional, cell-based; details: Homo sapiens
[6] = molecular target: Nuclear receptor subfamily 0 group B member 1 (Homo sapiens, UniProt P51843); test: Luminescence-based cell-based high throughput dose response assay for inhibitors of the orphan nuclear receptor subfamily 0, group B, member 1 (DAX1; NR0B1). [Related pubchem assays (depositor defined):AID504766, AID504790]; format: functional
[7] = HepG2 cell cytotoxicity, dose response, cytotoxicity control, ATP luminescence, cherry-pick, activator set 2 (AID 1053143); format: functional, cell-based
CHO-K1 = test: (§1) Counterscreen for antagonists of the orexin 1 receptor (OX1R; HCRTR1): Homogeneous time resolved fluorescence (HTRF)-based cell-based dose response assay to identify antagonists of the parental CHO-K1 cell line. [Related pubchem assays (depositor defined):AID434989, AID435008, AID463079, AID485270, AID492963, AID492964, AID492965, AID493232, AID504699, AID504701]; format: functional; details: Cricetulus griseus
[8] = as §1, with “Fluorescence-based” for “Homogeneous time resolved fluorescence (HTRF)-based”, “cell-based high throughput” for “cell-based”, “CHO” for “CHO-K1”; format: functional
[9] = molecular target: T1, Orexin/Hypocretin receptor type 1 (Homo sapiens, UniProt O43613); test: Homogeneous Time Resolved Fluorescence (HTRF)-based cell-based high throughput dose response assay for antagonists of the orexin 1 receptor (OX1R; HCRTR1). [Related pubchem assays (depositor defined):AID434989, AID435008, AID463079, AID485270, AID492963, AID492964, AID492965, AID493232, AID504717, AID504718]; format: functional
[10] = molecular target: T1, Orexin/Hypocretin receptor type 1; test: Fluorescence-based cell-based high throughput dose response assay for antagonists of the orexin 1 receptor (OX1R; HCRTR1). [Related pubchem assays (depositor defined):AID434989, AID435008, AID463079, AID485270, AID492963, AID492964, AID492965, AID493232, AID504717, AID504718]; format: functional
Orexin receptor type 2 [11] = molecular target: T2, Orexin receptor type 2 (Homo sapiens, UniProt O43614); test: Counterscreen assay for antagonists of the orexin 1 receptor (OX1R; HCRTR1): Fluorescence-based cell-based dose response assay for antagonists of the orexin 2 receptor (OX2R; HCRTR2), run by assay provider.; format: functional
Orexin receptor type 2 [12] = molecular target: T2, Orexin receptor type 2; test: Counterscreen assay for antagonists of the orexin 1 receptor (OX1R; HCRTR1): Homogeneous Time Resolved Fluorescence (HTRF)-based cell-based dose response assay for antagonists of the orexin 2 receptor (OX2R; HCRTR2), run by assay provider.; format: functional
[13] = molecular target: T3, Heat shock factor protein 1 (Mus musculus, UniProt P38532); test: inhibition of MG132-induced HSE-luciferase signal, confirmation, cell-based, NIH3T3, luminescence, dose retest (AID 2382); format: functional;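 also: NIH3T3 fibroblasts with HSF1-driven luciferase reporter stressed by proteasome inhibitor MG132; luminescence from HSF1-driven luciferase expression after 8 hours of MG132 stress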
T3 sequence (P38532 whole entry): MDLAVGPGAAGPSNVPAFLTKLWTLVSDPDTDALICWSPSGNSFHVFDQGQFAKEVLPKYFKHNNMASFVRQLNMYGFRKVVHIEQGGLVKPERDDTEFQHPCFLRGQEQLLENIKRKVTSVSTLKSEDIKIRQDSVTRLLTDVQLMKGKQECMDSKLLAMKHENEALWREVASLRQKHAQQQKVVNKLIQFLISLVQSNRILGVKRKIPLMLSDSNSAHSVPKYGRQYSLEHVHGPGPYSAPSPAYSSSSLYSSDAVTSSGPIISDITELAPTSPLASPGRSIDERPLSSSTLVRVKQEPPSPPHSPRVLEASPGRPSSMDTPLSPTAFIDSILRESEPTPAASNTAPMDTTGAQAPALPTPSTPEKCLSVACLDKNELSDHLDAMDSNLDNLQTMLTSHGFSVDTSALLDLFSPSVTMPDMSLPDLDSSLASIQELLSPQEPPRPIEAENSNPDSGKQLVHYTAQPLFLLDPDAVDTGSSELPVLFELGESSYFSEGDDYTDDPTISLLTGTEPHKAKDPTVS

HEK293 [14] = test: inhibitors of LMP1-driven NF-kB reporter, dose response, cell-based, HEK293, luciferase, cherry-pick (AID 588343); format: functional; details: Homo sapiens
[15] = molecular target: Latent membrane protein 1 (Human herpesvirus 4 (strain B95-8), UniProt P03230); test: TES1-eGFP NF-kB reporter inhibition versus Tet-On dsRED, dose response, selectivity assay for LMP1 NF-kB inhibitor project, imaging, HEK293T, dual-color eGFP/dsRED, cherry-picks (AID 588398); format: functional, cell-based
[16] = molecular target: Luciferin 4-monooxygenase (Photuris pensylvanica, UniProt Q27757); test: firefly luciferase enzyme inhibitors, dose response, counter-screen for HSF-1 reporter inhibitor project, biochemical, Cell Titer Glo, luminescence, cherry-picks (AID 588847)
[17] = molecular target: Dual specificity tyrosine-phosphorylation-regulated kinase 1A (Rattus norvegicus, UniProt Q63470); format: biochemical, Homo sapiens
[18] = inhibitors of HIV Env-driven cell fusion, dose response, cherry-pick (AID 652057); format: functional, cell-based
[19] = off-target signal loss in HeLa-CEM21 co-culture – HeLa F-luc CTL cells, cherry-picked, counter-screen for HIV-1 Env fusion inhibitor project, dose response (AID 652040); format: functional, cell-based;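 also: potency for signal decrease marking cytotoxic or nonspecific inhibition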
[20] = inhibitors of clade B AD8 Env fusion, dose response, cell-based, cherry-pick (AID 652062); format: functional;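 also: luciferase signal from cell-cell fusion driven by HIV-1 clade B AD8 Env; potency is for inhibitors of fusion seen as a drop in luminescence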
[21] = molecular target: T4, Short transient receptor potential channel 4 (Mus musculus, UniProt Q9QUQ5); test: SAR Analysis for the identification of selective inhibits of the transient receptor potential cation channel C4 (TRPC4): Automated Electrophysiology. [Related pubchem assays (depositor defined):AID2256]; format: functional
T4 sequence (Q9QUQ5 whole entry): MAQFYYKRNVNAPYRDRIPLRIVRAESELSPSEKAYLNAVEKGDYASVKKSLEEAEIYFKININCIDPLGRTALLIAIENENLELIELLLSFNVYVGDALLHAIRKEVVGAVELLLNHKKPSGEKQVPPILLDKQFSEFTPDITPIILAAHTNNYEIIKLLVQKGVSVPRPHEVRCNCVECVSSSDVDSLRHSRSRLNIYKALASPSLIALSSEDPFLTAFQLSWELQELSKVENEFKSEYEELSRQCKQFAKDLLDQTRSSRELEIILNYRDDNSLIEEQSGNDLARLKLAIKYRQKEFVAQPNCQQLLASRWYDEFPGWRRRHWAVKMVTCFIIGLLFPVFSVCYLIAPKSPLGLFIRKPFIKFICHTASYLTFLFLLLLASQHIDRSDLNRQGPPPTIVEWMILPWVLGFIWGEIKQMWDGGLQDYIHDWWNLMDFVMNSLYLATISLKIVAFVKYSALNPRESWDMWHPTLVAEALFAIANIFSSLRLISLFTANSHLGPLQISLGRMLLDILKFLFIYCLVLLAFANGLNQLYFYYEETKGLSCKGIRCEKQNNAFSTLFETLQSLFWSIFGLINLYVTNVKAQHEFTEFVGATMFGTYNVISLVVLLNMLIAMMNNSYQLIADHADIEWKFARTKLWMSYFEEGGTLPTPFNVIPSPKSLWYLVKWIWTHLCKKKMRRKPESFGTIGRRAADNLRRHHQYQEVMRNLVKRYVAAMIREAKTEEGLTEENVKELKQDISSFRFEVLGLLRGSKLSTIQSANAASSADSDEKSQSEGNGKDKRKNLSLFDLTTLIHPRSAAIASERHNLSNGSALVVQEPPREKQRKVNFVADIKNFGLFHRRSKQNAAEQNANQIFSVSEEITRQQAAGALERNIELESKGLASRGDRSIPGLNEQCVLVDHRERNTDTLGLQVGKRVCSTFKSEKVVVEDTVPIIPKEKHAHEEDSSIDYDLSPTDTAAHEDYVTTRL

[22] = molecular target: T4, Short transient receptor potential channel 4; test: TRPC4 inhibition under acetylcholine activation, SAR follow-up, cell-based, acetylcholine stimulus, HEK293 TRPC4, Fluo-4 (AID 492996); format: functional
[23] = molecular target: T4, Short transient receptor potential channel 4; test: SAR Analysis for the identification of selective inhibitors of the transient receptor potential cation channel C4 (TRPC4): TRPC4 Serotonin Receptor CRC MPD assay. [Related pubchem assays (depositor defined):AID2247, AID2256]; format: functional
[24] = molecular target: Short transient receptor potential channel 6 (Mus musculus, UniProt Q61143); test: TRPC6 inhibition potency of TRPC4 inhibitor analogs, dose response, selectivity assay for selective TRPC4 inhibitor project, HEK293 cells, membrane potential dye, IC50 (AID 492987); format: functional, cell-based
[25] = molecular target: T4, Short transient receptor potential channel 4; test: TRPC4 inhibitor concentration-response, dose response, cell-based, HEK293 TRPC4/mu-opioid, DAMGO stimulus, Fluo-4 (AID 492994); format: functional
[26] = molecular target: Protein kinase C zeta type (Homo sapiens, UniProt Q05513); format: functional;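 also: measured as one member of a broad kinase profiling panel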
[27] = molecular target: Protein kinase C delta type (Homo sapiens, UniProt Q05655); format: functional
[28] = molecular target: Serine/threonine-protein kinase pim-1 (Homo sapiens, UniProt P11309); format: functional
[29] = molecular target: Serine/threonine-protein kinase PAK 1 (Homo sapiens, UniProt Q13153); format: functional
[30] = molecular target: Protein kinase C gamma type (Homo sapiens, UniProt P05129); format: functional
[31] = molecular target: Calcium/calmodulin-dependent protein kinase type 1 (Homo sapiens, UniProt Q14012); format: functional
[32] = molecular target: Serine/threonine-protein kinase MRCK alpha (Homo sapiens, UniProt Q5VT25); format: functional
Serine/threonine-protein kinase MRCK alpha, sequence (Q5VT25 whole entry): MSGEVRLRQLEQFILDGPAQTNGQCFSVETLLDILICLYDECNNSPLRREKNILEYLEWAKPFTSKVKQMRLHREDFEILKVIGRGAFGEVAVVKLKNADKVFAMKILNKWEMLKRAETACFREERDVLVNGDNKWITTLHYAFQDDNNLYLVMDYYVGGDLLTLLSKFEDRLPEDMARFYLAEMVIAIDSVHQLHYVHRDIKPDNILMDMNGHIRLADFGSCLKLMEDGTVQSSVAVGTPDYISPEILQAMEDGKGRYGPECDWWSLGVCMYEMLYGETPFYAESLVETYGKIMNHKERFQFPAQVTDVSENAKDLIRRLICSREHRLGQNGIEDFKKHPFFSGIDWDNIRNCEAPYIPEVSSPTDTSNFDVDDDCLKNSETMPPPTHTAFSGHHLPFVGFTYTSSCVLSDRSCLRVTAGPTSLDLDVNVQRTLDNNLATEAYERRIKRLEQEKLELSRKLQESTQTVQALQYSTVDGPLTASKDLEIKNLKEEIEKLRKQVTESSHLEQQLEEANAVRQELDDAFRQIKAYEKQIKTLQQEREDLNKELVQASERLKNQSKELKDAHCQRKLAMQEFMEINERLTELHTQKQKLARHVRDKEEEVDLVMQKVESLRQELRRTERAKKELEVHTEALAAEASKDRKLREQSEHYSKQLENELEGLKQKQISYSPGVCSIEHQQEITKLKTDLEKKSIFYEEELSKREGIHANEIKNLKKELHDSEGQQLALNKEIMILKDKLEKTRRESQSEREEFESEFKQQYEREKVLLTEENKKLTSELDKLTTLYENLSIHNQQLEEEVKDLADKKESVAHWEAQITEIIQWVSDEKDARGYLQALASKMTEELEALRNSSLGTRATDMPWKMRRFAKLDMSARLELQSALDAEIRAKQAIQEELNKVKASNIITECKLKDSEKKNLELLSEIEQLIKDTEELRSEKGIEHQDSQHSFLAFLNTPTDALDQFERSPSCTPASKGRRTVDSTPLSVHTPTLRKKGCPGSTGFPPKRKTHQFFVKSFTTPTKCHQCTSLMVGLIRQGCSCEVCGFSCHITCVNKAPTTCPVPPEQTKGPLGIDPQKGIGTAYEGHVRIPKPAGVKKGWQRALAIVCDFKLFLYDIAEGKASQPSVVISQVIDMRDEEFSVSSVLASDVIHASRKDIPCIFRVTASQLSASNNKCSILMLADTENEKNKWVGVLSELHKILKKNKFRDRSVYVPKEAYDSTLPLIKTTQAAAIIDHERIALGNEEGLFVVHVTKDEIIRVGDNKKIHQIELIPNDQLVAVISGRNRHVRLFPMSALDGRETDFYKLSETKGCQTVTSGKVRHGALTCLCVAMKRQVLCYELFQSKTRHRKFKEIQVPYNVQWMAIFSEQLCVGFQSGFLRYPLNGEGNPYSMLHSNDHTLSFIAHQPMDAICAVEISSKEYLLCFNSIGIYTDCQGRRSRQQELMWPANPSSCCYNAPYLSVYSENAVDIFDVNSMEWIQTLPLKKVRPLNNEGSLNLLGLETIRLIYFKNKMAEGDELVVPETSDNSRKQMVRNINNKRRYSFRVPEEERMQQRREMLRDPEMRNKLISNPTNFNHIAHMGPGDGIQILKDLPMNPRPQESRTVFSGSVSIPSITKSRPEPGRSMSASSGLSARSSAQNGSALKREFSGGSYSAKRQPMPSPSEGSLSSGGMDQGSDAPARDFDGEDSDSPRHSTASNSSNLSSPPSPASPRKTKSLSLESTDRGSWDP

T1 sequence (O43613 whole entry): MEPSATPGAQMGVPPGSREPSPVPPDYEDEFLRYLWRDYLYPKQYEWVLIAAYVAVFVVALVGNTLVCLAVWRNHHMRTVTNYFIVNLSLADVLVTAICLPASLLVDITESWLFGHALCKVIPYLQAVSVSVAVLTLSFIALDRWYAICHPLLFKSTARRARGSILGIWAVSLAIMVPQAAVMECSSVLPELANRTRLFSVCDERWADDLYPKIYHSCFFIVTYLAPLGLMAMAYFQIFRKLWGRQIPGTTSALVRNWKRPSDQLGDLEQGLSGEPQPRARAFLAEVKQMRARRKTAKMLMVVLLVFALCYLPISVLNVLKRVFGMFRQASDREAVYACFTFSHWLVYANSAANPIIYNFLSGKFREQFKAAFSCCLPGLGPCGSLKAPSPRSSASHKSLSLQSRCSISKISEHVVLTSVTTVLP
T2 sequence (O43614 whole entry): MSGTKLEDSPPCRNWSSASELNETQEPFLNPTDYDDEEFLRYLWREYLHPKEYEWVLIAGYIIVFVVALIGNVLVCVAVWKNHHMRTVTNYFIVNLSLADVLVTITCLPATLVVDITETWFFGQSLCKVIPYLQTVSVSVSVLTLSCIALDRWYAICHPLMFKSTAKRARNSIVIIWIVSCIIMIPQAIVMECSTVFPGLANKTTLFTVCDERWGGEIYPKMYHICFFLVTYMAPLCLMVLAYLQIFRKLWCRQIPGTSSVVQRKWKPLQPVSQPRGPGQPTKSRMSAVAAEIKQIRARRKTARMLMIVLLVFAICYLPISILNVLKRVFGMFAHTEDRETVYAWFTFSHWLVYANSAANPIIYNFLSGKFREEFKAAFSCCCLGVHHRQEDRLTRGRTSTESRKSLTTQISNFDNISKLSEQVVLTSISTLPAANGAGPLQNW
Luciferin 4-monooxygenase, sequence (Q27757 whole entry): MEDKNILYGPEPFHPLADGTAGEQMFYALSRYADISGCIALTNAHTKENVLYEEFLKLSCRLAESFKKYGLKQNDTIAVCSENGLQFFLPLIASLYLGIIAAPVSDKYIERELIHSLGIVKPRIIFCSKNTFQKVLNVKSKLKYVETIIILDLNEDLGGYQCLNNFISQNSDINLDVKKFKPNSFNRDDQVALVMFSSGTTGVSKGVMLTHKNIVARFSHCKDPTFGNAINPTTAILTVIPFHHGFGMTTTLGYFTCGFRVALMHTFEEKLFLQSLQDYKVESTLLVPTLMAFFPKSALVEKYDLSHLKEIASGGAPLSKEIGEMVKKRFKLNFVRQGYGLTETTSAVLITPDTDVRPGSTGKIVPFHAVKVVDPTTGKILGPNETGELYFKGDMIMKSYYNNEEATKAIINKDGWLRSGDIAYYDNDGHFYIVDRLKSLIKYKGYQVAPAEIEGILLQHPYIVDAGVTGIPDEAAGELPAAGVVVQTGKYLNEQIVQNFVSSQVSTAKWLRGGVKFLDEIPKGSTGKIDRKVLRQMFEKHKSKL
Nuclear receptor subfamily 0 group B member 1, sequence (P51843 whole entry): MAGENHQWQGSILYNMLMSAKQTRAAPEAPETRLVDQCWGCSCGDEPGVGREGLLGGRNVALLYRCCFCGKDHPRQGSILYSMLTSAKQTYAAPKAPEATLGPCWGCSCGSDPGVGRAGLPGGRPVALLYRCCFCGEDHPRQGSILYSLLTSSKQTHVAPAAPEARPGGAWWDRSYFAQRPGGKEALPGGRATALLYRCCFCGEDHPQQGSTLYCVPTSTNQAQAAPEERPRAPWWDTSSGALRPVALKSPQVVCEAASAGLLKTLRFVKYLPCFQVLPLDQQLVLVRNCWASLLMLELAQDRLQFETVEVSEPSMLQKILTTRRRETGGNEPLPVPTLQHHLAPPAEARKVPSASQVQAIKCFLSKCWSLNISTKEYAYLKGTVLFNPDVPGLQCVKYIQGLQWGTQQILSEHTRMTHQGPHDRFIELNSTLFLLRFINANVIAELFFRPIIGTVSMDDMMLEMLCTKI
Serine/threonine-protein kinase PAK 1, sequence (Q13153 whole entry): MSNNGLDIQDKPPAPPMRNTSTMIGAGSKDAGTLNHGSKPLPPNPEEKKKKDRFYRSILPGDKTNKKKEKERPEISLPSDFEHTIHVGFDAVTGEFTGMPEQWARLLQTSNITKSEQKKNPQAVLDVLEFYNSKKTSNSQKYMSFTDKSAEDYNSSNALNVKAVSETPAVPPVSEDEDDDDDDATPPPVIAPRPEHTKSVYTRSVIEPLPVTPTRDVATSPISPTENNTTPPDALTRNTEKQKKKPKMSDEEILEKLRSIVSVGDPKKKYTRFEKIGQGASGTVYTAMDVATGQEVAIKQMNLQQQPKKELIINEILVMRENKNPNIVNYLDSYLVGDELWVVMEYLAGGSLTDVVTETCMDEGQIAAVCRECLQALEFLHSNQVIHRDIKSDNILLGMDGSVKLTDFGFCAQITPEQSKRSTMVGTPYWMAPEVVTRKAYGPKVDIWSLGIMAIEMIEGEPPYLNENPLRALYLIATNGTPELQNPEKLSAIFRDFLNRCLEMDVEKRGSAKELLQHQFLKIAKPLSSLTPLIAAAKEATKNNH

O=C(Nc1ccccc1O)c1ccc(NC(=O)C2CC2)cc1
EC50 [1]: 10.5 µM (active)
EC50 [2]: 17.3 µM (active)
EC50 (cells [3]): 11.2 µM (active)
EC50 (H4): 12.3 µM (active)
EC50 (cells [4]): 51.3 µM (active)
IC50 (HEK293 [5]): 1.91 µM (active)
IC50 [6]: > 67.6 µM (inactive)
AC50 [7]: 18.8 µM (active)

CNc1oc(-c2cccc3ccccc23)nc1C#N
IC50 (CHO-K1): > 66.2 µM (inactive)
IC50 [8]: > 49.7 µM (inactive)
IC50 [9]: 887 nM (active)
IC50 [10]: 3.48 µM (active)
IC50 (Orexin receptor type 2 [11]): > 88.8 µM (inactive)
IC50 (Orexin receptor type 2 [12]): > 50 µM (inactive)

CC1=C(C(=O)OCc2ccc3c(c2)OCO3)C(c2ccc(F)cc2)NC(=O)N1 (centres undefined)
EC50 [13]: < 160 nM (active)
AC50 (HEK293 [14]): 3.36 µM (active)
AC50 [15]: 9.67 µM (active)
AC50 [16]: > 52 µM (inactive)
AC50 [17]: 1.85 µM (active)
AC50 [18]: 284 nM (active)
AC50 [19]: 576 nM (active)
AC50 [20]: 1.47 µM (active)

CCc1ccc2nc(N3CCCC3)cc(C)c2c1
IC50 [21]: 2.05 µM (active)
IC50 [22]: 9.52 µM (active)
IC50 [23]: 4.23 µM (active)
IC50 [24]: 14.1 µM (active)
IC50 [25]: 483 nM (active)

CC(C)c1ccc2c(c1)c(SC(C)(C)C)c(CC(C)(C)CNCCCO)n2Cc1ccc(Cl)cc1
Ki [26]: 7.94 µM (active)
Ki [27]: 2.51 µM (active)
Ki [28]: 5.01 µM (active)
Ki [29]: 2 µM (active)
Ki [30]: 3.98 µM (active)
Ki [31]: 7.94 µM (active)
Ki [32]: 6.31 µM (active)
